Results: patent US8163779B2, “Glucokinase activators” (Takeda San Diego, Inc., priority 2006, dated 2012)

Target: T1, glucokinase (GK) (Homo sapiens, UniProt P35557)
T1 construct: I.D. No. 1 corresponds to residues 12-465 of glucokinase; made in house; host or cells: E. coli DH10b-T1r
T1 sequence (P35557 with tags, fused parts or gaps isoform P35557-2): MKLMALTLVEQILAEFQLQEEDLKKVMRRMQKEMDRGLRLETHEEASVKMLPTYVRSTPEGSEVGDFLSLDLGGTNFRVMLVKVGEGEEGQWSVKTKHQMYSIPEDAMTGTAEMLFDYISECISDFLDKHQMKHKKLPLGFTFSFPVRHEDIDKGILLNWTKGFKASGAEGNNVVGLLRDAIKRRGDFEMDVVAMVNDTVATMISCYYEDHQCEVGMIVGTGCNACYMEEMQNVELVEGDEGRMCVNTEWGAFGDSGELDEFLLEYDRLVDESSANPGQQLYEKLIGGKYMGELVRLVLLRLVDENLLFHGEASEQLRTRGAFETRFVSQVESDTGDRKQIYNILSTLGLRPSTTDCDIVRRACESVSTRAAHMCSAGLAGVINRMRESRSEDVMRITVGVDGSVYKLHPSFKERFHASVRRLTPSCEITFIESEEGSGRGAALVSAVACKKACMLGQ
Assay: enzymatic glucokinase activity assay (ATP consumption, KinaseGlo luminescence)
Assay type: biochemical
Conditions: recombinant GK residues 12-465; 5 μM ATP, 5 mM Glucose; Kact = concentration that displays 50% of the maximal increase in GK activity; read-out: pKact
Procedure, shortened: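 Recombinant human glucokinase expressed in E. coli was run in 25 mM Hepes pH 7.2 with 10 mM MgCl2, 1 mM DTT, 5 μM ATP, 5 mM glucose and 2% DMSO for 60 min at room temperature. Remaining ATP was read by KinaseGlo luminescence; pKact came from non-linear curve fits.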

- EC50: 1.58 to 15.8 µM
SMILES: O=C(Nc1ncc(F)s1)[C@H](CC1CCOCC1)n1cc(Cl)c(S(=O)(=O)C2CC2)cc1=O [Example 198, (S)-2-(5-chloro-4-(cyclopropylsulfonyl)-2-oxopyridin-1(2H)-yl)-N-(5-fluorothiazol-2-yl)-3-(tetrahydro-2H-pyran-4-yl)propanamide]
